The record followed here is paper PMC9042912, “T cell receptor and IL-2 signaling strength control memory CD8^+ T cell functional fitness via chromatin remodeling” (Nature Communications, 2022).

The target in this assay is T1, H2-K^b (Mus musculus, UniProt P01901).
T1 construct: RMA-S cells were added per well to a 96-well flat-bottom plate and incubated at 30 °C overnight; endogenous in cells; host or cells: RMA-S cells (TAP-deficient), obtained from Dr. Steve Porcelli
T1 sequence (P01901 22-369): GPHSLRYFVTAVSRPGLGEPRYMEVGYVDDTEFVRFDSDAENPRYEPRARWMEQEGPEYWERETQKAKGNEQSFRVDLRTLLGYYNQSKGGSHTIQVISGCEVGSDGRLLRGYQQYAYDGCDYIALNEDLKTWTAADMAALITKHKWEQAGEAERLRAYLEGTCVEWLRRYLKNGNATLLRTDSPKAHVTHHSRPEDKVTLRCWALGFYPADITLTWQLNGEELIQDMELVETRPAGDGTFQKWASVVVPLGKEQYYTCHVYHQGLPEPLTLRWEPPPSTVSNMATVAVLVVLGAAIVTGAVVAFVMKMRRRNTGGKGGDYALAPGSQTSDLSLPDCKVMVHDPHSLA
T1 sequence (P01887 21-119 partner): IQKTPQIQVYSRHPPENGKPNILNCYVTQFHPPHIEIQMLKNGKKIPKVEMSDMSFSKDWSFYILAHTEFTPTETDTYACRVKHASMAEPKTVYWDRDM
Briefly: cell-based.

No end group written: not given here.

Turning to SIINFEKA [A8], binding was put at a Kd of 351 nM. That is a sub-micromolar value.
